The source of these data is PMC13289212, “HIVIL: A human in vitro inflammatory liver model recapitulates immune-associated drug effects with high predictivity” (NAM journal, 2025).

Each structure is given as a SMILES string.

The subject of one assay is IL-6. Also on record: method as in ref Hassan et al. 2016; Giustarini et al. 2019; Higuchi et al. 2012; Dik et al. 2018. Particulars: ref Hassan et al. 2016; Giustarini et al. 2019; Higuchi et al. 2012; Dik et al. 2018; cited from earlier work.
The next assay relates to IL-10. Briefly: IL-10 ELISA in HIVIL (iKCs co-cultured with iHeps, LPS, 48 hr). Type of assay: cell-based, human. Particulars: result in words. The source says: Human iPSC cell line iPS (IMR90)-4 was purchased from WiCell Research Institute (Madison, WI), and maintained with a feeder-free method according to the instruction from […] Technologies (Vancouver, BC, Canada). The protocol of differentiation towards iKCs and iHeps as described previously with slight modification ([Tasnim et al., 2019]; [Cai et al., 2012]), respectively. […] More details are provided in Supplementary Methods. After differentiation, iKCs was harvested using 0.05 % trypsin-EDTA (Gibco, Waltham, Massachusetts, USA), while iHeps were dissociated with TrypLE^TM (Gibco). iHep suspension was further filtered through a 40 µm cell strainer to remove extracellular matrix clumps. Cell suspension was centrifuged at 1000 rpm for 5 min. For co-culture set up, tissue culture plates were coated with Rat tail collagen I (Gibco) diluted 100-fold in 0.02 N acetic acid, and incubated at 37 °C for 1 h and washed 3 times with PBS. […]
Enzyme-linked immunosorbent assay (ELISA) for measurement of cytokines: Interleukin-6 (IL-6), interleukin-10 (IL-10) and tumor necrosis factor alpha (TNFα) levels in the media were measured using the corresponding human-based ELISA kits (Abcam, Cambridge, United Kingdom) according to manufacturer’s instructions. […]

Another assay concerns iHeps. Briefly: RNA-Seq of iHeps from mono-culture and HIVIL. It is filed as cell-based, human. The source says: Subsequent analyses compared gene fold-changes of treated samples against their respective vehicle controls: "m" and "c" indicate mono- and co-culture, and "–" and "+" represent the absence or presence of LPS. […] However, this is only applicable for co-cultures where downstream effects can be traced back to cytokine changes, and not in monocultures where significant upstream cytokine changes are not observed.
RNA extraction was done using TRIzol and analyzed on a Tapestation 4200 to determine RNA Integrity Number (RIN). Only samples with RIN > 8 were sequenced. Illumina Stranded mRNA multiplexing was done with unique 96 dual indices, and all samples sequenced on the same lane of NovaSeq 6000 S4 flowcell. Data normalization was performed using DESeq2 v1.32.0 ([Love et al., 2014]) on the R programming language v4.1.0 ([R Core Team, 2021]; [R Team, 2021]). Gene enrichment analysis was done with fgsea v1.18 ([Korotkevich et al., 2021]) with gene sets downloaded from MSigDB and KEGG pathway visualization done via pathview v1.32 ([Kanehisa et al., 2021]; [Luo and Brouwer, 2013]). Other plots were produced using ggplot2 v3.3.5 and scatterplot3d v0.3-41 ([Ligges and Maechler, 2003]). The RNA-Seq dataset has been deposited in NCBI under accession number GSE189320.
RNA seq and analysis: After 48 hr of drug treatment, iHeps cultured in mono-culture and HIVIL were both subjected to TrypLE^TM dissociation, and subsequently sorted with magnetic separation with the CD163 Microbead kit (Miltenyi Biotec, Bergisch Gladbach, Germany) to obtain only iHeps. Flow-through was collected, pelleted down and snap-frozen in liquid nitrogen, before storage at -80°C. Lysates were sent to the Genome Research Informatics and Data Science platform (Agency for Science, Technology and Research, Singapore). RNA extraction was done using TRIzol and analyzed on a Tapestation 4200 to determine RNA Integrity Number (RIN). All sequenced samples included for further analysis had RIN > 8. Illumina Stranded mRNA multiplexing was done with unique 96 dual indices, and all samples sequenced on the same lane of NovaSeq 6000 S4 flowcell. Sequenced reads were trimmed for adaptor sequence using Trim Galore v0.6.4, then aligned to human genome build GRCh38 using STAR_2.6.1d. Aligned reads are summarized into count matrices using featureCounts v1.6.4 with the gene annotation file from GENCODE v37.
Data normalization was performed using DESeq2 v1.32.0 (Love et al. 2014) on the R programming language v4.1.0 (Core Team 2021; Team 2021). Gene enrichment analysis was done with fgsea v1.18 (Korotkevich et al. 2021) with gene sets downloaded from MSigDB and KEGG pathway visualization done via pathview v1.32 (Kanehisa et al. 2021; Luo and Brouwer 2013). Other plots were produced using ggplot2 v3.3.5 and scatterplot3d v0.3-41 (Ligges and Maechler 2003). The RNA-Seq dataset has been deposited in NCBI under accession number GSE189320.

With `N[C@@H]1[C@H]2CN(c3nc4c(cc3F)c(=O)c(C(=O)O)cn4-c3ccc(F)cc3F)C[C@@H]12` [TVX, Trovafloxacin], in the assay with IL-6, the “Reported in-vivo (murine) responses: IL-6” value is on record as “IL-6↑”. Further, the IL-10 response entry with IL-10 was “dose-dependent IL-10 decrease”. The “pro-inflammatory cytokine and chemokine mRNA expression” value in the assay on iHeps (LPS-treated co-cultures) is given as “significantly increased”. In addition, in the assay on iHeps (cTVX+, 25 µM), the FADD upregulation came out at 1.7 fold, the TNFα transcription increase was 2.3 fold, the cIAP-2 upregulation is recorded as 3 fold and the “caspase 3 upregulation” value is on record as 1.8 fold. For the same compound, the IL-8 transcription increase in the assay with iHeps (co-culture, cTVX+ vs. cVeh+, 25 µM) stood at 3.2 fold. This compound had a TNFα transcription in the assay on iHeps (mTVX+ compared to mVeh+, 25 µM) of 0.9 fold. This compound also registered a cIAP-2 upregulation with iHeps (mTVX+, 25 µM) of 1.5 fold. In the assay with iHeps (mono-culture, mTVX+ vs. mVeh+, 25 µM), this compound displayed an IL-8 transcription increase of 1.3 fold. In the assay on iHeps (regardless of culture conditions, result in words), the “IL-6 transcription in iHeps” value is recorded as “slightly decreased”.
